Experimental data published in PubChem BioAssay AID179 (DTP/NCI, 2004).
Active and inactive are the calls of the source.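 How the source made its calls: active means compounds giving half or more protection of infected cells from virus-caused growth loss, again on retest; inactive means the rest.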

Test system: CEM cells HIV-1 protection, formazan growth assay
Assay: NCI AIDS Antiviral Assay
Conditions: for IC50: measured here: growth of uninfected CEM cells
Method in brief: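 CEM (human) cells, HIV-1 infected vs uninfected, 5-point dosing, formazan growth read-out. Retest threshold 50% protection.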

| SMILES | EC50 | IC50 | outcome |
| --- | --- | --- | --- |
| C=CCc1c(O)c2nsnc2c2nsnc12 | > 200 µM | > 200 µM |  |
| N#CC1(C#N)NC(c2cccnc2)C(C#N)(C#N)NC1c1cccnc1 (stereo not drawn) | > 200 µM | > 200 µM |  |
| CCN(CC)c1c(-c2ccccc2)nnc2c3ccccc3nn12 | > 200 µM | 24 µM |  |
| COc1ccc2[nH]c(C)cc2c1CN | > 575 µM | 120 µM |  |
| O=[N+]([O-])c1ccc2nc3ccc([N+](=O)[O-])cn3c2c1 | > 200 µM | > 200 µM |  |
| CC(C)=CC(Cc1ccccc1)S(=O)(=O)c1nc2ccccc2s1 (stereo not drawn) | > 200 µM | 10 µM |  |
| O=C1CSC(c2cccc(Cl)c2)N1c1ccc(-c2ccc(-n3c(-c4ccccc4)nc4ccccc4c3=O)cc2)cc1 (stereo not drawn) | > 200 µM | 21.9 µM |  |
| CN=C(n1ccnc1)n1ccnc1 | > 200 µM | > 200 µM |  |
| O=C1CCCCC/C1=C\c1ccc(F)cc1 | > 200 µM | 61.7 µM |  |
| C=CCC(=S)NCCc1c[nH]c2ccccc12 | > 200 µM | 120 µM |  |
| c1ccc(Nn2c(CCCCCCCCc3nnc(COc4ccccc4)n3Nc3ccccc3)nnc2COc2ccccc2)cc1 | > 2 µM | > 2 µM |  |
| CC12CCC3=C(CSC4=C3CSc3ccccc34)C1=CCCC2=O (stereo not drawn) | > 200 µM | > 200 µM |  |
| COc1ccc(/C(C)=N/NC(N)=O)cc1 | > 174 µM | > 174 µM |  |
| CCCCCCCC(=O)OCC(COC(=O)C(C)(C)C)OC(=O)Cc1ccccc1 (stereo not drawn) | > 251 µM | > 251 µM |  |
| NC(N)=NS(=O)(=O)c1ccc(NC(=O)c2ccc3[nH]c4ccccc4c(=O)c3c2)cc1 | > 200 µM | > 200 µM |  |
| CC1=C(C#N)C(N)=C2C(C)=C(C#N)C(N)=C12 |  |  | inactive |
| COCCOCCOCCOCCOCCOCCOCCOCCOCCOCCOCCOCCOCCOCCOCCOCCOCC(=O)N(CCn1ccc(N)nc1=O)CCn1cnc2nc(N)[nH]c(=O)c21 | > 117 µM | > 117 µM |  |
| COc1cc2c(cc1OC)C1CC3(CC4c5cc(OC)c(OC)cc5CCN4CC3CO)C(CO)CN1CC2 (stereo not drawn) |  |  | inactive |
| C/C=C1\CC2C(=O)CCC2C2c3ccccc3OC12 (stereo not drawn) | > 200 µM | > 200 µM |  |
| Cc1cc2c(C(C)C)c(O)c(O)c(C=Nc3ccc(-c4ccccc4)cc3)c2c(O)c1-c1c(C)cc2c(C(C)C)c(O)c(O)c(C=Nc3ccc(-c4ccccc4)cc3)c2c1O | 1.62 µM | > 200 µM |  |
| CC1=NN2C(=N)/C(=C/c3ccccc3)C(=O)N=C2S1 | > 200 µM | > 200 µM |  |
| NCCCCNCCCN1CCOC1=O | > 200 µM | > 200 µM |  |

| SMILES | EC50 | IC50 | outcome |
| --- | --- | --- | --- |
| CC(C)(C)c1cc(/C=C\C(=O)c2ccc([N+](=O)[O-])cc2)cc(C(C)(C)C)c1O | > 10 µM | > 10 µM |  |
| Nc1c(Cl)cc(/C=C2\C=Cc3ccccc32)cc1Cl | > 18.2 µM | > 18.2 µM |  |
| Cc1c(N2CCN(C)CC2)nc2ccc(Cl)cc2c1-c1ccccc1 | > 14.8 µM | > 14.8 µM |  |
| Nc1n[n+]([O-])c2cc([N+](=O)[O-])ccc2[n+]1[O-] | > 20 µM | 0.603 µM |  |
| CCOC(=O)C1=C(OS(=O)(=O)C(F)(F)F)CCCC1 | > 200 µM | > 200 µM |  |
| Cc1ccc(-c2cc[n+]3c(n2)oc2ccccc23)cc1 | > 200 µM | 3.63 µM |  |
| O=[N+]([O-])c1nccn1CC(O)CO (stereo not drawn) | > 661 µM | > 661 µM |  |
| COc1cccc2c1-c1nc(N)c3c(OC)cccc3c1C2=O | 74.1 µM | > 200 µM |  |
| CC1(C)C(=O)N(c2ccccc2)C(=O)N1c1nc2ccccc2[nH]1 | > 155 µM | > 155 µM |  |
| CC1Oc2c(c(=O)oc3ccccc23)[C@@]1(C)CC1C[C@H](C)C(=O)O1 (stereo partly drawn) | > 200 µM | 24.5 µM |  |
| Fc1cccc(C2SCc3nc4ncccc4n32)c1 (stereo not drawn) | > 132 µM | > 132 µM |  |
| CCN(CC)C(=O)COc1cc2c(O)c3c(O)c(C)c4c(c13)C(=O)C(C)(O/C=C/C(OC)C(C)C(O)C(C)C(O)C(C)C(O)C(C)/C=C/C=C(\C)C(=O)N2)O4 (stereo not drawn) | > 200 µM | 29.5 µM |  |
| COc1ccc(N2C(=O)C3c4[nH]c5ccccc5c4C4CC(C)CC(C)C4C3C2=O)cc1 (stereo not drawn) | > 2.45 µM | > 2.45 µM |  |
| CCOC(=O)[C@@H]1ON2O[C@@H](OC3CCCCC3c3ccccc3)C[C@H]3OC(=O)[C@@H]1C32 (stereo partly drawn) | > 200 µM | > 200 µM |  |
| CC(C)CCCC(C)C1CCC2[C@@H]3CCC4C[C@@H](CC=C(c5cc(Cl)c(O)c(C(=O)O)c5)c5cc(Cl)c(O)c(C(=O)O)c5)CC[C@]4(C)C3CC[C@]12C (stereo partly drawn) | 21.4 µM | 316 µM |  |
| NC1CNC(=O)c2c(Cl)sc(Cl)c21 (stereo not drawn) | > 200 µM | > 200 µM |  |
| Cn1c(=O)c2c(nc3n(C)c(=O)c4ccccc4n23)n(C)c1=O | > 200 µM | 2.51 µM |  |
| COc1ccccc1NC(=O)/C(C=NC(=S)C(N)=S)=C(\C)O |  |  | inactive |
| C[C@]1(O)CC[C@H]2[C@@H]3CCC4=CC(=O)CC[C@]4(C)[C@@]3(Cl)[C@@H](Cl)C[C@@]21C | > 200 µM | > 200 µM |  |
| Cc1cc[c]([Sb](=[O])([OH])[c]2ccc(C)cc2)cc1 | > 5.01 µM | 0.851 µM |  |
| NC(CSCCSCCSCC(N)C(=O)O)C(=O)O (stereo not drawn) | > 56.2 µM | > 56.2 µM |  |
| COc1ccc(N=Nc2c(N)nn3cc4c(nc23)CCC4)cc1 |  |  | inactive |

| SMILES | EC50 | IC50 | outcome |
| --- | --- | --- | --- |
| COC(=O)c1ccc(/C=C2\Oc3cc(O)ccc3C2=O)cc1 | > 200 µM | 182 µM |  |
| CC(NC(=O)C(C)C(=O)Nc1ccc(C(F)(F)F)cc1)C(N)=O (stereo not drawn) | > 200 µM | > 200 µM |  |
| O=S(=O)(O)c1ccc(NNc2ccc(S(=O)(=O)O)cc2)cc1 |  |  | inactive |
| CCNc1cc2oc(=O)cc(C(F)(F)F)c2cc1C | > 13.8 µM | > 13.8 µM |  |
| CN(Cc1ccccc1)C1(N(C)Cc2ccccc2)CC1 |  |  | inactive |
| CCc1cccc(C(C)C)c1N1C(=O)C(=O)C(c2nc3ccccc3s2)C(=O)C1=O | > 17.4 µM | > 17.4 µM |  |
| CCOC1CCC2C(CCC(/C=C/c3ccc(O)c4ncccc34)N2C)C1 (stereo not drawn) | > 28.2 µM | 4.9 µM |  |
| O=[N+]([O-])c1ccc2c(c1)n1c(N3CCCC3)[n+]3ccccc3c1c1c3cccc[n+]3c(N3CCCC3)n21 | 72.4 µM | 77.6 µM |  |
| CC(C)[C@H](NC(=O)OCc1ccccc1)C(=O)N[C@H](/C=C/C(=O)OC(C)(C)C)CO | > 200 µM | 97.7 µM |  |
| O=C(O)CCc1ccc(O)c(O)c1 |  |  | inactive |
| Cc1nn(C(=O)Cc2ccccc2)c2c1C(c1ccc(Cl)cc1)SC(N)=N2 (stereo not drawn) | 110 µM | 158 µM |  |
| NC1=C(O)c2cccc3cccc(c23)C1=O |  |  | inactive |
| O=C1c2ccccc2S[C@@H](O)[C@@H]2CCCN12 |  |  | inactive |
| S=C(S)N1CCN(c2cccc(Cl)c2)CC1 | > 200 µM | 182 µM |  |
| COc1ccc(C(c2ccccc2)(c2ccc(OC)cc2)N2C(=O)NC3C(CCCCC(=O)NCCCCCCOP(OCCC#N)N(C(C)C)C(C)C)SCC32)cc1 (stereo not drawn) | > 4.47 µM | > 4.47 µM |  |
| NC(=O)c1cc(/C=C/c2ccccc2)on1 | > 200 µM | > 200 µM |  |
| CN(C)P1(=O)N(c2ccccc2)P(=O)(N(C)C)N1c1ccccc1 (stereo not drawn) | > 224 µM | > 224 µM |  |
| Clc1ccc2c(Cl)ncnc2c1I | > 30.9 µM | 7.41 µM |  |
| CN1C(=O)C(/C=N/NC(=O)c2cccnc2)C(N)N(C)C1=O (stereo not drawn) | > 200 µM | > 200 µM |  |
| COc1ccc(Cc2nnc(C)c3c(C)[nH]nc23)cc1OC |  |  | inactive |
